Laboratory results reported in ChEMBL document CHEMBL1132653, “Substitution at the F-ring N-imide of the indolocarbazole antitumor drug NB-506 increases the cytotoxicity, DNA binding, and topoisomerase I inhibition activities” (J Med Chem, 1999).
pIC50: −log10 of the molar value.

Legend:
[1] = system: HCT-116; test: Cytotoxicity against human colon cancer cells (HCT116); assay type: functional, cell-based
[2] = The compound was tested for free energy change at binding to DNA; assay type: ADME
[3] = The compound was tested for Binding constant against DNA; assay type: ADME
[4] = system: DLD-1; test: Cytotoxicity against human colon cancer cells (DLD-1); assay type: functional, cell-based
[5] = system: MKN-45; test: Cytotoxicity against human gastric cancer cells (MKN-45); assay type: functional, cell-based; conditions: MKN-45, Stomach
[6] = system: P388; test: Cytotoxicity against murine leukemia cell line (P388); assay type: functional, cell-based; conditions: Mus musculus

-Delta G obs [2] [kcal/mol] | K/10e4 [3] [M⁻¹] | Structure (SMILES) | pIC50 [1] | pIC50 [4] | pIC50 [5] | pIC50 [6]
6.56 | 8.19 | O=C1c2c(c3c4cccc(O)c4n(C4OC(CO)C(O)C(O)C4O)c3c3[nH]c4c(O)cccc4c23)C(=O)N1NC(CO)CO (centres undefined) | 7.49 | – | – | –
5.91 | 2.64 | O=CNN1C(=O)c2c(c3c4cccc(O)c4n(C4OC(CO)C(O)C(O)C4O)c3c3[nH]c4c(O)cccc4c23)C1=O (centres undefined) | 6.92 | 5.68 | 6.41 | 7.21
